Reference: patent US12077503B2, “Substituted cyclic amides and their use as herbicides” (FMC CORPORATION, priority 2015, dated 2024)

What was measured:
Assay type in all cases: in vivo
[1] = system: sedge, umbrella (small-flower umbrella sedge, Cyperus difformis); assay: Test B flooded paddy test; conditions: Cyperus difformis, 250 g ai/ha, Flood; 0 to 100 scale where 0 is no effect and 100 is complete control; read-out: Sedge, Umbrella plant response rating
How it was run: (§1)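 Rating scale 0–100 (visual, vs untreated controls) after a 13–15 d greenhouse period; application to the flood layer, 3 cm above soil and maintained; plants at 2-leaf stage when treated.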

[2] = system: ducksalad (Heteranthera limosa); assay: Test B flooded paddy test; conditions: Heteranthera limosa, 250 g ai/ha, Flood; 0 to 100 scale where 0 is no effect and 100 is complete control; read-out: Ducksalad plant response rating
How it was run: as §1

[3] = system: rice (Oryra sativa); assay: Test B flooded paddy test; conditions: Oryza sativa, 250 g ai/ha, Flood; 0 to 100 scale where 0 is no effect and 100 is complete control; read-out: Rice plant response rating
How it was run: as §1

[4] = system: barnyardgrass (Echinochloa crus-galli); assay: Test B flooded paddy test; conditions: Echinochloa crus-galli, 250 g ai/ha, Flood; 0 to 100 scale where 0 is no effect and 100 is complete control; read-out: Barnyardgrass plant response rating
How it was run: as §1

[5] = system: blackgrass (Alopecurus myosuroides); assay: Test A postemergence; conditions: Alopecurus myosuroides, post-emergence, 240 h; for pest or weed control at 125 g/ha: 125 g ai/ha, postemergence, visual injury vs untreated controls after approx. 10 d, 0 = no effect, 100 = complete control, read-out: Blackgrass plant response rating (0 to 100 scale); for pest or weed control at 31 g/ha: Postemergence, 31 g ai/ha, visual injury after approx. 10 d, 0 to 100 scale, 0 no effect, 100 complete control, read-out: Plant response rating, Blackgrass
How it was run: (§2)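 Ratings of 0 (no effect) to 100 (complete control) come from visual comparison with untreated controls roughly 10 d after treatment. Test chemicals, formulated in a non-phytotoxic solvent mixture with surfactant, were applied either as a preemergence directed soil spray on seeded soil or postemergence to one- to two-leaf plants 2 to 10 cm tall.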

[6] = system: barnyardgrass (Echinochloa crus-galli); assay: Test A postemergence; conditions: Echinochloa crus-galli, post-emergence, 240 h; for pest or weed control at 125 g/ha: 125 g ai/ha, postemergence, visual injury vs untreated controls after approx. 10 d, 0 = no effect, 100 = complete control, read-out: Barnyardgrass plant response rating (0 to 100 scale); for pest or weed control at 31 g/ha: Postemergence, 31 g ai/ha, visual injury after approx. 10 d, 0 to 100 scale, 0 no effect, 100 complete control, read-out: Plant response rating, Barnyardgrass
How it was run: as §2

[7] = system: corn (Zea mays); assay: Test A postemergence; conditions: Zea mays, post-emergence, 240 h; for plant injury at 125 g/ha: 125 g ai/ha, postemergence, visual injury vs untreated controls after approx. 10 d, 0 = no effect, 100 = complete control, read-out: Corn plant response rating (0 to 100 scale); for Corn plant response rating (crop injury, 0 = no effect, 100 = complete kill) at 31 g/ha: Postemergence, 31 g ai/ha, visual injury after approx. 10 d, 0 to 100 scale, 100 complete control
How it was run: as §2

[8] = system: Kochia (Kochia scoparia); assay: Test A postemergence; conditions: Bassia scoparia, post-emergence, 240 h; for pest or weed control at 31 g/ha: Postemergence, 31 g ai/ha, visual injury after approx. 10 d, 0 to 100 scale, 0 no effect, 100 complete control, read-out: Plant response rating, Kochia
How it was run: as §2

[9] = system: giant foxtail (Setaria faberii); assay: Test A postemergence; conditions: Setaria faberi, post-emergence, 240 h; for pest or weed control at 125 g/ha: 125 g ai/ha, postemergence, visual injury vs untreated controls after approx. 10 d, 0 = no effect, 100 = complete control, read-out: Foxtail, Giant plant response rating (0 to 100 scale); for pest or weed control at 31 g/ha: Postemergence, 31 g ai/ha, visual injury after approx. 10 d, 0 to 100 scale, 0 no effect, 100 complete control, read-out: Plant response rating, Foxtail, Giant
How it was run: as §2

[10] = system: pigweed (Amaranthus retroflexus); assay: Test A postemergence; conditions: Amaranthus retroflexus, post-emergence, 240 h, 125 g ai/ha, postemergence, visual injury vs untreated controls after approx. 10 d; 0 = no effect, 100 = complete control; read-out: Pigweed plant response rating (0 to 100 scale)
How it was run: as §2

[11] = system: ragweed (common ragweed, Ambrosia elatior); assay: Test A postemergence; conditions: Ambrosia artemisiifolia, post-emergence, 240 h, 125 g ai/ha, postemergence, visual injury vs untreated controls after approx. 10 d; 0 = no effect, 100 = complete control; read-out: Ragweed plant response rating (0 to 100 scale)
How it was run: as §2

[12] = system: ryegrass, Italian (Italian ryegrass, Lolium multiflorum); assay: Test A postemergence; conditions: Lolium multiflorum, post-emergence, 240 h, 125 g ai/ha, postemergence, visual injury vs untreated controls after approx. 10 d; 0 = no effect, 100 = complete control; read-out: Ryegrass, Italian plant response rating (0 to 100 scale)
How it was run: as §2

[13] = system: wheat (Triticum aestivum); assay: Test A postemergence; conditions: Triticum aestivum, post-emergence, 240 h, 125 g ai/ha, postemergence, visual injury vs untreated controls after approx. 10 d; 0 = no effect, 100 = complete control; read-out: Wheat plant response rating (0 to 100 scale)
How it was run: as §2

[14] = system: Galium (catchweed bedstraw, Galium aparine); assay: Test A postemergence; conditions: Galium, post-emergence, 240 h; for pest or weed control at 125 g/ha: 125 g ai/ha, postemergence, visual injury vs untreated controls after approx. 10 d, 0 = no effect, 100 = complete control, read-out: Galium plant response rating (0 to 100 scale); for pest or weed control at 31 g/ha: Postemergence, 31 g ai/ha, visual injury after approx. 10 d, 0 to 100 scale, 0 no effect, 100 complete control, read-out: Plant response rating, Galium
How it was run: as §2

[15] = system: barnyardgrass (Echinochloa crus-galli); assay: Test A preemergence; conditions: Echinochloa crus-galli, pre-emergence, 240 h, 0 to 100 scale where 0 is no effect and 100 is complete control, read-out: Barnyardgrass plant response rating; for pest or weed control at 31 g/ha: 31 g ai/ha, Preemergence; for pest or weed control at 125 g/ha: 125 g ai/ha, preemergence, approx. 10 d
How it was run: as §2

[16] = system: Kochia (Kochia scoparia); assay: Test A preemergence; conditions: Bassia scoparia, pre-emergence, 240 h, 0 to 100 scale where 0 is no effect and 100 is complete control, read-out: Kochia plant response rating; for pest or weed control at 31 g/ha: 31 g ai/ha, Preemergence; for pest or weed control at 125 g/ha: 125 g ai/ha, preemergence, approx. 10 d
How it was run: as §2

[17] = system: giant foxtail (Setaria faberii); assay: Test A preemergence; conditions: Setaria faberi, pre-emergence, 240 h, 0 to 100 scale where 0 is no effect and 100 is complete control, read-out: Foxtail, Giant plant response rating; for pest or weed control at 31 g/ha: 31 g ai/ha, Preemergence; for pest or weed control at 125 g/ha: 125 g ai/ha, preemergence, approx. 10 d
How it was run: as §2

[18] = system: pigweed (Amaranthus retroflexus); assay: Test A preemergence; conditions: Amaranthus retroflexus, pre-emergence, 240 h, 0 to 100 scale where 0 is no effect and 100 is complete control, read-out: Pigweed plant response rating; for pest or weed control at 31 g/ha: 31 g ai/ha, Preemergence; for pest or weed control at 125 g/ha: 125 g ai/ha, preemergence, approx. 10 d
[19] = system: ragweed (common ragweed, Ambrosia elatior); assay: Test A preemergence; conditions: Ambrosia artemisiifolia, pre-emergence, 240 h, 0 to 100 scale where 0 is no effect and 100 is complete control, read-out: Ragweed plant response rating; for pest or weed control at 31 g/ha: 31 g ai/ha, Preemergence; for pest or weed control at 125 g/ha: 125 g ai/ha, preemergence, approx. 10 d
How it was run: as §2

[20] = system: ryegrass, Italian (Italian ryegrass, Lolium multiflorum); assay: Test A preemergence; conditions: Lolium multiflorum, pre-emergence, 240 h, 0 to 100 scale where 0 is no effect and 100 is complete control, read-out: Ryegrass, Italian plant response rating; for pest or weed control at 31 g/ha: 31 g ai/ha, Preemergence; for pest or weed control at 125 g/ha: 125 g ai/ha, preemergence, approx. 10 d
How it was run: as §2

Row | Structure (SMILES) | pest or weed control at 250 g/ha [1] [%] | pest or weed control at 250 g/ha [2] [%] | pest or weed control at 250 g/ha [3] [%] | pest or weed control at 250 g/ha [4] [%] | pest or weed control at 125 g/ha [5] [%] | pest or weed control at 31 g/ha [5] [%] | pest or weed control at 125 g/ha [6] [%] | pest or weed control at 31 g/ha [6] [%] | plant injury at 125 g/ha [7] [%] | Corn plant response rating (crop injury, 0 = no effect, 100 = complete kill) at 31 g/ha [7] [%] | pest or weed control at 31 g/ha [8] [%] | pest or weed control at 125 g/ha [9] [%] | pest or weed control at 31 g/ha [9] [%] | pest or weed control at 125 g/ha [10] [%] | pest or weed control at 125 g/ha [11] [%] | pest or weed control at 125 g/ha [12] [%] | plant injury at 125 g/ha [13] [%] | pest or weed control at 125 g/ha [14] [%] | pest or weed control at 31 g/ha [14] [%] | pest or weed control at 31 g/ha [15] [%] | also measured
1 | CON1CC[C@H](c2cccc(C(F)(F)F)c2)[C@@H](C(=O)Nc2ccc(F)c(F)c2F)C1=O [Compound 1170] | 0 | 40 | 0 | 30 | 20 | 0 | 60 | 0 | 0 | 0 | 0 | 60 | 0 | 0 | 0 | 0 | 0 | 30 | 20 | 0 | pest or weed control at 125 g/ha [15]: 40%; pest or weed control at 31 g/ha [16]: 0%; pest or weed control at 125 g/ha [16]: 0%; pest or weed control at 31 g/ha [17]: 0%; pest or weed control at 125 g/ha [17]: 70%; pest or weed control at 31 g/ha [18]: 0%; pest or weed control at 125 g/ha [18]: 0%; pest or weed control at 31 g/ha [19]: 0%; pest or weed control at 125 g/ha [19]: 0%; pest or weed control at 31 g/ha [20]: 0%; pest or weed control at 125 g/ha [20]: 0%
2 | CN1C[C@H](c2ccc([Si](C)(C)C)cc2)[C@@H](C(=O)Nc2cccc(F)c2F)C1=O [Compound 1168] | 0 | 0 | 30 | 40 | 0 | 0 | 0 | 0 | 0 | 0 | 0 | 20 | 0 | 0 | 0 | 0 | 20 | 30 | 0 | 0 | pest or weed control at 125 g/ha ([8]; 125 g ai/ha, postemergence, visual injury vs untreated controls after approx. 10 d, 0 = no effect, 100 = complete control, read-out: Kochia plant response rating (0 to 100 scale)): 0%; pest or weed control at 125 g/ha [15]: 0%; pest or weed control at 31 g/ha [16]: 0%; pest or weed control at 125 g/ha [16]: 0%; pest or weed control at 31 g/ha [17]: 0%; pest or weed control at 125 g/ha [17]: 30%; pest or weed control at 31 g/ha [18]: 0%; pest or weed control at 125 g/ha [18]: 0%; pest or weed control at 31 g/ha [19]: 0%; pest or weed control at 125 g/ha [19]: 0%; pest or weed control at 31 g/ha [20]: 0%; pest or weed control at 125 g/ha [20]: 0%
